From publication PMC9571063 (Molecules, 2022)
Structures can show the parent of a compound that is named as a salt. Where two headings read alike, the source gives them in different places.

Tests used:
HsDYRK1A = biological target: T1, HsDYRK1A (Homo sapiens, UniProt Q13627); test: ADP-Glo kinase assay; assay type: biochemical; settings: for remaining activity at 1 µM / remaining activity at 10 µM: n=2, read-out: % of residual activity Hs_DYRK1A
T1 construct: host or cells: Sf9 insect cells (baculovirus)

MmCLK1 = biological target: T2, MmCLK1 (Mus musculus, UniProt P22518); test: ADP-Glo kinase assay; assay type: biochemical; settings: for remaining activity at 1 µM / remaining activity at 10 µM: n=2, read-out: % of residual activity Mm_CLK1
T2 construct: host or cells: bacteria
T2 sequence (P22518 whole entry): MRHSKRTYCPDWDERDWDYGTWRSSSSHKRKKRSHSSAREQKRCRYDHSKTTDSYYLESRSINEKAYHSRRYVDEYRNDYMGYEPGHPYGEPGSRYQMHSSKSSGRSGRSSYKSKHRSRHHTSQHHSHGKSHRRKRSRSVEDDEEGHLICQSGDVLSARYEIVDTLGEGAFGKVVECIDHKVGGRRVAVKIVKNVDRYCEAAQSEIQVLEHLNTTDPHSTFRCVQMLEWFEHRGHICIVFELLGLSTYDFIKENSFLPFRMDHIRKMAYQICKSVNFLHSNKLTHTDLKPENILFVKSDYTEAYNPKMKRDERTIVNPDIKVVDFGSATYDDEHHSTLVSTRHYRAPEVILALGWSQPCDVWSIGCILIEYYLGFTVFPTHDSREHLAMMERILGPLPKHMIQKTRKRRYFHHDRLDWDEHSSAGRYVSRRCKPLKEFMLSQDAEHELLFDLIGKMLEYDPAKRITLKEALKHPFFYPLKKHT

Hs_CDK5/p25 = biological target: T3, Hs_CDK5/p25 (Homo sapiens, UniProt Q00535); test: ADP-Glo kinase assay, primary screen; assay type: biochemical; settings: n=2, read-out: % of residual activity Hs_CDK5/p25
T3 construct: host or cells: bacteria
T3 sequence (Q00535 whole entry): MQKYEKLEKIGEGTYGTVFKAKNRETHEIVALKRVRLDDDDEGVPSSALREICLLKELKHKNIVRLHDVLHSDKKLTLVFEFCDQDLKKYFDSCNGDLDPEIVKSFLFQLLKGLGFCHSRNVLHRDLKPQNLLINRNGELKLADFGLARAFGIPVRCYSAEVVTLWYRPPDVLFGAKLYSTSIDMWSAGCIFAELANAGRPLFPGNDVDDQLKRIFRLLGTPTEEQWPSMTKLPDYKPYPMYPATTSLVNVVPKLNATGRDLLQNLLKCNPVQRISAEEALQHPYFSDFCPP
T3 sequence (Q15078 99-307 partner limits assumed): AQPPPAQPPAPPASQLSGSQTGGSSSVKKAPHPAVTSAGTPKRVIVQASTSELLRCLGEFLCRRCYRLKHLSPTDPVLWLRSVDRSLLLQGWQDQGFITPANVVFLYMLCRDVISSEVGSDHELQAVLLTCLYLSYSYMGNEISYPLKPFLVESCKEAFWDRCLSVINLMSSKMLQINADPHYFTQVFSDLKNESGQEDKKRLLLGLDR

Hs_CDK9/CyclinT = biological target: T4, Hs_CDK9/CyclinT (Homo sapiens, UniProt P50750); test: ADP-Glo kinase assay, primary screen; assay type: biochemical; settings: n=2, read-out: % of residual activity Hs_CDK9/CyclinT
T4 construct: host or cells: Sf9 insect cells (baculovirus)
T4 sequence (P50750 whole entry): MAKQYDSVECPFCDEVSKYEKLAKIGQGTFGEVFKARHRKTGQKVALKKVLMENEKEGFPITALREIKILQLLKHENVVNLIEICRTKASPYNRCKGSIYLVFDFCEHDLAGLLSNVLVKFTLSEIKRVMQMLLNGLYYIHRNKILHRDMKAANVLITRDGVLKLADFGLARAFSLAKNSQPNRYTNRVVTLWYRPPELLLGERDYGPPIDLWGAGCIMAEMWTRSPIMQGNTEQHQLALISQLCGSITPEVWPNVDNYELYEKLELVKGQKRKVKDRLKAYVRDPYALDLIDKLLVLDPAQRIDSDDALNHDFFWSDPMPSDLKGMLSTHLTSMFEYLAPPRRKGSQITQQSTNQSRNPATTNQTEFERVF
T4 sequence (O60563 whole entry partner): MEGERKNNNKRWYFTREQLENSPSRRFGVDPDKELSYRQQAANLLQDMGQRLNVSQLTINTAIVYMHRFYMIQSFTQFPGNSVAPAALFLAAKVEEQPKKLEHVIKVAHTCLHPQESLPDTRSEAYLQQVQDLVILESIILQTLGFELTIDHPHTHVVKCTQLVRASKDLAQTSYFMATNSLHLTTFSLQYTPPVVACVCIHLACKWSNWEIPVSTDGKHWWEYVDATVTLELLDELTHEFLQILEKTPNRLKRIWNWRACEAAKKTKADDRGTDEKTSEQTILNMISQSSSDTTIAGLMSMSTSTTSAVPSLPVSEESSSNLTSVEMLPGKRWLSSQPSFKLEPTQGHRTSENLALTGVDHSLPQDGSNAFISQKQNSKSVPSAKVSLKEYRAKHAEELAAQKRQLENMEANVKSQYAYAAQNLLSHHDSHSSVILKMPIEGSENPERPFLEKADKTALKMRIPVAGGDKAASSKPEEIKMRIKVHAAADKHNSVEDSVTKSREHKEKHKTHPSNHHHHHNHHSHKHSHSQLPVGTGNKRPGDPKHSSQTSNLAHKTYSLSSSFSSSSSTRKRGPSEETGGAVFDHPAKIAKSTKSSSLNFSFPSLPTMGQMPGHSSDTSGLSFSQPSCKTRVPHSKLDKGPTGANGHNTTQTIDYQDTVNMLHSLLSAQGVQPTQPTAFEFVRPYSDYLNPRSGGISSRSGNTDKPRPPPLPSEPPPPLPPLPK

Hs_PIM1 = biological target: T5, Hs_PIM1 (Homo sapiens, UniProt P11309); test: ADP-Glo kinase assay, primary screen; assay type: biochemical; settings: n=2, read-out: % of residual activity Hs_PIM1
T5 construct: host or cells: Sf9 insect cells (baculovirus)
T5 sequence (P11309 whole entry): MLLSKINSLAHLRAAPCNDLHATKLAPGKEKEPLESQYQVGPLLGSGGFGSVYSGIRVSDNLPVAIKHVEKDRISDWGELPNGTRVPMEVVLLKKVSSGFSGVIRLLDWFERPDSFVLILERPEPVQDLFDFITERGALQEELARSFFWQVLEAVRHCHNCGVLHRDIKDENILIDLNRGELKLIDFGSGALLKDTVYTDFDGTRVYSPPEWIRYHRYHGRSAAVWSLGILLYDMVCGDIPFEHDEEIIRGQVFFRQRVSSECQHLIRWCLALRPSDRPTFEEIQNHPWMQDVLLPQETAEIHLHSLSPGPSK

Rn_DYRK1A = biological target: T6, Rn_DYRK1A (Rattus norvegicus, UniProt Q63470); test: ADP-Glo kinase assay, primary screen; assay type: biochemical; settings: n=2, read-out: % of residual activity Rn_DYRK1A
T6 construct: host or cells: bacteria

Hs_HASPIN = biological target: T7, Hs_HASPIN (Homo sapiens, UniProt Q8TF76); test: ADP-Glo kinase assay, primary screen; assay type: biochemical; settings: n=2, read-out: % of residual activity Hs_HASPIN
T7 construct: host or cells: bacteria
T7 sequence (Q8TF76 1-798): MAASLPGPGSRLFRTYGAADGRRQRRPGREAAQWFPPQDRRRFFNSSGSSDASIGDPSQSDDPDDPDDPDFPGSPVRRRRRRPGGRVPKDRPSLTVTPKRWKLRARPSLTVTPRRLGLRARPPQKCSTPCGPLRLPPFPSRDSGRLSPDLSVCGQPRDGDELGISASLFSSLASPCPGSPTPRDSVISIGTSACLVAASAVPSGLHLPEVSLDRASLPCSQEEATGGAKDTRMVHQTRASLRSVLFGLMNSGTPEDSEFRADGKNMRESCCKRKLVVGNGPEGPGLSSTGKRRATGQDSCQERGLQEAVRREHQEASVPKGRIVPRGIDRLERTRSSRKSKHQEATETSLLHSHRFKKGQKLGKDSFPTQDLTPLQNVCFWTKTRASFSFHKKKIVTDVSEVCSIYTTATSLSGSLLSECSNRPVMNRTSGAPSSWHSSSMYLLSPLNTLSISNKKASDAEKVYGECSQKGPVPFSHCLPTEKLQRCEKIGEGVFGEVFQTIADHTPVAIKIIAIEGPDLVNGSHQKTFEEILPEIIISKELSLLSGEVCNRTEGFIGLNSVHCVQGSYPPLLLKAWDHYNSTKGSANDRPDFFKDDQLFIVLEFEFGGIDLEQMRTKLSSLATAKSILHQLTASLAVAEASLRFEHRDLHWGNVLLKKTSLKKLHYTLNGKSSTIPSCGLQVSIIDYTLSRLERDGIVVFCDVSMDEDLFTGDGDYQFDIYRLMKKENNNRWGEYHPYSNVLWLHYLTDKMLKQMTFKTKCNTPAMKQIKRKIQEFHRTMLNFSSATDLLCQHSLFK

Hs_GSK3β = biological target: T8, Hs_GSK3β (Homo sapiens, UniProt P49841); test: ADP-Glo kinase assay, primary screen; assay type: biochemical; settings: n=2, read-out: % of residual activity Hs_GSK3β
T8 construct: host or cells: Sf9 insect cells (baculovirus)
T8 sequence (P49841 whole entry): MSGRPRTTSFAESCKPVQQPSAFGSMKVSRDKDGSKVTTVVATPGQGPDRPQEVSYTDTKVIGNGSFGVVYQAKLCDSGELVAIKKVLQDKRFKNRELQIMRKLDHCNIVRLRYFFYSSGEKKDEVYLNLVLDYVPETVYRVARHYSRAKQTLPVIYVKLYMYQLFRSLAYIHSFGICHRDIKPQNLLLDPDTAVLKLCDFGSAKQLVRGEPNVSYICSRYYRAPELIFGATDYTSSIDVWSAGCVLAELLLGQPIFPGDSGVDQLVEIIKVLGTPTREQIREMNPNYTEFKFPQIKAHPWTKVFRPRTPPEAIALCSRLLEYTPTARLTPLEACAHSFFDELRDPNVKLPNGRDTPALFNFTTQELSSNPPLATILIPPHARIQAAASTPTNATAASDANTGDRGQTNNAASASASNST

Hs_CK1ε = biological target: T9, Hs_CK1ε (Homo sapiens, UniProt P49674); test: ADP-Glo kinase assay, primary screen; assay type: biochemical; settings: n=2, read-out: % of residual activity Hs_CK1ε
T9 construct: host or cells: Sf9 insect cells (baculovirus)
T9 sequence (P49674 whole entry): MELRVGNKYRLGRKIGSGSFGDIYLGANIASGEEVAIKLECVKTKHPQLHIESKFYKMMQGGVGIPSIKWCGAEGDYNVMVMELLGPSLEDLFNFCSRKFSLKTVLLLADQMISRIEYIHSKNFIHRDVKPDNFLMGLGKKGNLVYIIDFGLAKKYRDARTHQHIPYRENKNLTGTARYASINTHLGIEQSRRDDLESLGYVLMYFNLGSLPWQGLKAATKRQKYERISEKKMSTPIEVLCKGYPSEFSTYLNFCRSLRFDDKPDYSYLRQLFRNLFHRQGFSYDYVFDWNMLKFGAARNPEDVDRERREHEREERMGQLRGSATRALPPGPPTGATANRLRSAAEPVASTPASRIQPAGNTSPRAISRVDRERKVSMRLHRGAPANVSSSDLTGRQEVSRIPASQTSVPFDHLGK

[1] = cytotoxic assay, nuclei count (Hoechst, HCS); assay type: cell-based; settings: human, HuH7 cells (hepatocellular carcinoma); 48 h treatment; read-out: Cytotoxic studies IC50 HuH7
[2] = cytotoxic assay, nuclei count (Hoechst, HCS); assay type: cell-based; settings: human, Caco-2 cells (colorectal adenocarcinoma); 48 h treatment; read-out: Cytotoxic studies IC50 Caco2
[3] = cytotoxic assay, nuclei count (Hoechst, HCS); assay type: cell-based; settings: human, MDA-MB-231 cells (breast carcinoma); 48 h treatment; read-out: Cytotoxic studies IC50 MDA-MB-231
[4] = cytotoxic assay, nuclei count (Hoechst, HCS); assay type: cell-based; settings: human, 48 h treatment
Experimental: (§1) To complete our study, we performed a cytotoxicity screening of the 15 molecules, investigating 7 representative cancer cell lines. The compound’s effect on cell viability was evaluated on Huh-7 (hepatocellular carcinoma), CaCo2, HCT-116 (colorectal adenocarcinoma), MCF7, MDA-MB231, MDA-MB468 (breast carcinoma), PC3 (prostate carcinoma) and NCI-H727 (lung carcinoid). Human skin fibroblasts were used as reference for non-cancerous cells. Roscovitine, Doxorubicin and Taxol were used as positive controls. The cells were treated for 48 h with 25 µM compounds and fixed in cooled 90% ethanol/5% acetic acid for 20 min. The nuclei were stained with Hoechst 33342 and counted using HCS technology.
(§2) HuH7, CaCo-2, MDA-MB-231, HCT116, PC3, MCF7 and NCI-H727 cancer cell lines were obtained from the ECACC collection (Porton Down, UK). Cells were grown at 37 °C, 5% CO2 in ECACC recommended media: DMEM for HuH7, MDA-MB-231 and fibroblast, EMEM for MCF7and CaCo-2, McCoy’s for HCT116 and RPMI for PC3 and NCI-H727. All culture media were supplemented with 10% of FBS, 1% of penicillin-streptomycin and 2 mM glutamine.
(§3) Chemicals were solubilized in DMSO at a concentration of 10 mM (stock solution) and diluted in culture medium to the desired final concentrations.
[…] Cells were plated in 96 wells plates (4000 cells/well). Twenty-four hours after seeding, cells were exposed to chemicals. After 48 h of treatment, cells were washed in PBS and fixed in cooled 90% ethanol/5% acetic acid for 20 min and the nuclei were stained with Hoechst 33342 (B2261 Sigma). Image acquisition and analysis were performed using a CellomicsArrayScan VTI/HCS Reader (ThermoScientific, Waltham, MA, USA). The survival percentages were calculated as the percentage of cell number after compound treatment over cell number after DMSO treatment.

[5] = cytotoxic assay, nuclei count (Hoechst, HCS); assay type: cell-based; settings: human, MCF7 cells (breast carcinoma); 48 h treatment; read-out: Cytotoxic studies IC50 MCF7
Experimental: as §1, §2, §3
(§4) The cytotoxic assay of chemical was performed at 25 µM. Cells were plated in 96 wells plates (4000 cells/well). Twenty-four hours after seeding, cells were exposed to chemicals. After 48 h of treatment, cells were washed in PBS and fixed in cooled 90% ethanol/5% acetic acid for 20 min and the nuclei were stained with Hoechst 33342 (B2261 Sigma). Image acquisition and analysis were performed using a CellomicsArrayScan VTI/HCS Reader (ThermoScientific, Waltham, MA, USA). The survival percentages were calculated as the percentage of cell number after compound treatment over cell number after DMSO treatment.

[6] = cytotoxic assay, nuclei count (Hoechst, HCS); assay type: cell-based, human; settings: human, human skin fibroblasts (non-cancerous reference cells); 48 h treatment; some cells add low/moderate/high amplitude; read-out: Cytotoxic studies IC50 Fibroblasts
Experimental: as §1, §2, §3, §4

[7] = HCT116 cells (colorectal adenocarcinoma), read-out: Cytotoxic studies IC50 HCT116
[8] = MDA-MB-468 cells (breast carcinoma), read-out: Cytotoxic studies IC50 MDA-MB-468

| Compound | remaining activity at 1 µM (HsDYRK1A) [%] | remaining activity at 10 µM (HsDYRK1A) [%] | remaining activity at 1 µM (MmCLK1) [%] | remaining activity at 10 µM (MmCLK1) [%] | remaining activity at 1 µM (Hs_CDK5/p25) [%] | remaining activity at 10 µM (Hs_CDK5/p25) [%] | remaining activity at 1 µM (Hs_CDK9/CyclinT) [%] | remaining activity at 10 µM (Hs_CDK9/CyclinT) [%] | remaining activity at 1 µM (Hs_PIM1) [%] | remaining activity at 10 µM (Hs_PIM1) [%] | remaining activity at 1 µM (Rn_DYRK1A) [%] | remaining activity at 10 µM (Rn_DYRK1A) [%] | remaining activity at 1 µM (Hs_HASPIN) [%] | remaining activity at 10 µM (Hs_HASPIN) [%] | remaining activity at 1 µM (Hs_GSK3β) [%] | remaining activity at 10 µM (Hs_GSK3β) [%] | remaining activity at 1 µM (Hs_CK1ε) [%] | remaining activity at 10 µM (Hs_CK1ε) [%] | IC50 at 48 h [1] [µM] | IC50 at 48 h [2] [µM] | also measured |
| --- | --- | --- | --- | --- | --- | --- | --- | --- | --- | --- | --- | --- | --- | --- | --- | --- | --- | --- | --- | --- | --- |
| CC(C)(C)OC(=O)N[C@H]1CC[C@@H](n2cc(COc3cccc4cnc(Nc5cccc(Cl)c5)nc34)nn2)CC1 [15a, tert-Butyl ((cis)-4-(4-(((2-((3-chlorophenyl)amino)quinazolin-8-yl)oxy)methyl)-1H-1,2,3-triazol-1-yl)cyclohexyl)carbamate] | 95 | 63 | 98 | 60 | ≥ 100 | 96 | 64 | 55 | 86 | 74 | ≥ 100 | 97 | 92 | 74 | ≥ 100 | 86 | ≥ 100 | 97 | 7 | > 25 | IC50 at 48 h [3]: 3 µM; IC50 at 48 h [4, 7]: 7 µM; IC50 at 48 h [4, 8]: 18 µM; IC50 at 48 h [5]: 23 µM; IC50 at 48 h [6]: > 25 µM |
| N[C@H]1CC[C@H](n2cc(COc3cccc4cnc(Nc5cc(Cl)cc(Cl)c5)nc34)nn2)CC1 [19b, 8-((1-((trans)-4-Aminocyclohexyl)-1H-1,2,3-triazol-4-yl)methoxy)-N-(3,5-dichlorophenyl)quinazolin-2-amine hydrochloride] | ≥ 100 | 55 | 12 | 7 | ≥ 100 | 42 | 91 | 42 | 79 | 44 | 92 | 92 | 95 | 90 | 44 | 15 | 63 | 20 | 14 | 3 | IC50 (HsDYRK1A; 10 µM ATP, duplicate): 5.44 µM; IC50 (MmCLK1; mouse CLK1 orthologue, read-out: IC50 MmCLK1): 0.21 µM; IC50 at 48 h [3]: 2 µM; IC50 at 48 h [4, 7]: 4 µM; IC50 at 48 h [4, 8]: 1.3 µM; IC50 at 48 h [5]: 3 µM; IC50 at 48 h [6]: 3 µM |
